Test results taken from ChEMBL document CHEMBL5052832, “Inhibition of ngly1 for the treatment of cancer” (2021).
The source made the active and inactive calls. The rule behind the calls is not given here.

Experiments:
UACC-257 [1] = assay: Antiproliferative activity against doxycycline-induced NGLY1 knocked down human UACC-257 cells at 20 uM in presence of dacarbazine assessed as decrease in growth inhibition after 72 hrs by MTT assay; assay type: functional, cell-based
UACC-257 [2] = assay: Antiproliferative activity against human UACC-257 cells at 10 to 1000 uM assessed as decrease in cell viability; assay type: functional, cell-based; conditions: dose 10-1000 µM
SK-MEL-2 [3] = assay: Antiproliferative activity against human SK-MEL-2 cells at 10 to 1000 uM assessed as decrease in cell viability; assay type: functional, cell-based; conditions: dose 10-1000 µM
[4] = Antiproliferative activity against human HDF51 cells at 10 to 1000 uM assessed as decrease in cell viability; assay type: toxicity, cell-based; conditions: hdf51, 1000 µM, dose 10-1000 µM
[5] = Antiproliferative activity against human HDF418 cells at 10 to 1000 uM assessed as decrease in cell viability; assay type: toxicity, cell-based; conditions: hdf418, 1000 µM, dose 10-1000 µM
[6] = molecular target: T1, Peptide-N(4)-(N-acetyl-beta-glucosaminyl)asparagine amidase (Homo sapiens) (UniProt Q96IV0); assay: Inhibition of NGLY1 in human UACC-257 cells at 200 uM assessed as increase in IFN-beta1 production measured after 48 hrs; assay type: cell-based
T1 sequence (whole entry): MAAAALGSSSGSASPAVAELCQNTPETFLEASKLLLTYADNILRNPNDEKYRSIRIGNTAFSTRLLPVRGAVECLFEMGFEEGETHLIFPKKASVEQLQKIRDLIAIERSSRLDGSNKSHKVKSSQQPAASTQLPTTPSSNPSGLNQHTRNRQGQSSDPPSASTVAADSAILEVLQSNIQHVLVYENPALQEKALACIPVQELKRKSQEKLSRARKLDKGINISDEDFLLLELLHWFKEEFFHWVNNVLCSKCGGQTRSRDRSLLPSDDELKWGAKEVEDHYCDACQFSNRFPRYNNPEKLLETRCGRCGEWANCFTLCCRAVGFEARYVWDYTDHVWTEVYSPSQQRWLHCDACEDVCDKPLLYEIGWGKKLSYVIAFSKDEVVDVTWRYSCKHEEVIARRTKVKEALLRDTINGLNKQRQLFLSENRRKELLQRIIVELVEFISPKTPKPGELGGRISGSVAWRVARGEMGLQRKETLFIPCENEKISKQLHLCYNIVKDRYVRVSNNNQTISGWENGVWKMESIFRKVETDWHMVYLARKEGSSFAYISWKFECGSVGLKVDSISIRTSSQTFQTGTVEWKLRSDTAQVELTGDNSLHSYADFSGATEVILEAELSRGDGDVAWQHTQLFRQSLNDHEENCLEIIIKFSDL

[7] = molecular target: T1, Peptide-N(4)-(N-acetyl-beta-glucosaminyl)asparagine amidase (Homo sapiens); assay: Inhibition of NGLY1 in human UACC-257 cells at 200 uM assessed as increase in IL-29 production measured after 48 hrs; assay type: cell-based
[8] = molecular target: T1, Peptide-N(4)-(N-acetyl-beta-glucosaminyl)asparagine amidase (Homo sapiens); assay: Inhibition of NGLY1 in human SK-MEL-2 cells at 200 uM assessed as increase in IFN-beta1 production measured after 48 hrs; assay type: cell-based
[9] = molecular target: T1, Peptide-N(4)-(N-acetyl-beta-glucosaminyl)asparagine amidase (Homo sapiens); assay: Inhibition of NGLY1 in human SK-MEL-2 cells at 200 uM assessed as increase in IL-29 production measured after 48 hrs; assay type: cell-based
[10] = molecular target: T1, Peptide-N(4)-(N-acetyl-beta-glucosaminyl)asparagine amidase (Homo sapiens); assay: Inhibition of NGLY1 in human HDF51 cells at 200 uM assessed as increase in IFN-beta1 production measured after 48 hrs; assay type: cell-based
[11] = molecular target: T1, Peptide-N(4)-(N-acetyl-beta-glucosaminyl)asparagine amidase (Homo sapiens); assay: Inhibition of NGLY1 in human HDF51 cells at 200 uM assessed as increase in IL-29 production measured after 48 hrs; assay type: cell-based
SK-MEL-2 [12] = assay: Antiproliferative activity against human SK-MEL-2 cells assessed as decrease in cell viability in presence of dacarbazine; assay type: functional, cell-based
Malme-3M = assay: Antiproliferative activity against doxycycline-induced NGLY1 knocked down human Malme-3M cells at 20 uM in presence of dacarbazine assessed as decrease in growth inhibition after 72 hrs by MTT assay; assay type: functional, cell-based
[13] = molecular target: T1, Peptide-N(4)-(N-acetyl-beta-glucosaminyl)asparagine amidase (Homo sapiens); assay: Inhibition of NGLY1 in human HEK293T cells at 200 uM assessed as retention of N-glycans on full-length NFE2L1 measured by electrophoretic mobility shift assay; assay type: cell-based
SK-MEL-2 [14] = assay: Antiproliferative activity against human SK-MEL-2 cells assessed as decrease in cell viability in presence of bortezomib; assay type: functional, cell-based

| SMILES | Activity (UACC-257 [1]) | Activity (UACC-257 [2]) | Activity (SK-MEL-2 [3]) | Activity [4] | Activity [5] | Activity [6] | Activity [7] | Activity [8] | Activity [9] | Activity [10] | Activity [11] | Activity (SK-MEL-2 [12]) | Activity (Malme-3M) | inhibition [13] | Activity (SK-MEL-2 [14]) |
| --- | --- | --- | --- | --- | --- | --- | --- | --- | --- | --- | --- | --- | --- | --- | --- |
| C=CC(=O)N[C@@H](CC(=O)N[C@@H]1O[C@H](COC(C)=O)[C@@H](OC(C)=O)[C@H](OC(C)=O)[C@H]1NC(C)=O)C(=O)NCCC | Active | Active | Active | Non-Toxic | Non-Toxic | Active | Active | Active | Active | inactive | inactive | Active | – | – | – |
| CCCNC(=O)[C@H](CC(=O)N[C@@H]1O[C@H](COC(C)=O)[C@@H](OC(C)=O)[C@H](OC(C)=O)[C@H]1NC(C)=O)NC(=O)/C=C/CN(C)C | Active | Active | Active | Non-Toxic | Non-Toxic | – | – | – | – | – | – | – | – | – | – |
| C=CS(=O)(=O)N[C@@H](CC(=O)N[C@@H]1O[C@H](COC(C)=O)[C@@H](OC(C)=O)[C@H](OC(C)=O)[C@H]1NC(C)=O)C(=O)NCCC | Active | Active | Active | Non-Toxic | Non-Toxic | Active | Active | Active | Active | inactive | inactive | – | – | – | – |
| CCCNC(=O)[C@H](CC(=O)N[C@@H]1O[C@H](COC(C)=O)[C@@H](OC(C)=O)[C@H](OC(C)=O)[C@H]1NC(C)=O)NC(=O)CCl | Active | Active | Active | Non-Toxic | Non-Toxic | Active | Active | Active | Active | – | – | – | Active | Active | Active |
